Test results from patent publication US12649723B2, “Carbonohydrazonoyl dicyanide compounds comprising 2 or more aryl or heteroaryl connected via linker and use thereof” (KOREA INSTITUTE OF SCIENCE AND TECHNOLOGY, priority 2020, dated 2026).

Legend:
tau protein = target: T1, tau protein (Homo sapiens, UniProt P10636); assay: Tau-BiFC cell model: inhibition of tau protein aggregation; format: cell-based; conditions: for remaining activity at 3 µM / remaining activity at 10 µM: 48 h, Forskolin-only group = 100% tau protein-aggregated state; for remaining activity at 3 µM: compounds marked *: measured at 3 μM, read-out: Response; for IC50: Tau BiFC in cells, with Forskolin 30 μM, 48 hours; for remaining activity at 10 µM: compound 10 μM, BiFC fluorescence, read-out: Response (% @10 μM)
T1 construct: fused on or other part: Split fluorescent-protein halves for BiFC are fused to tau; In the published tau-BiFC line these are Venus VN173 and VC155
T1 sequence (P10636 2-441 isoform P10636-8 limits assumed): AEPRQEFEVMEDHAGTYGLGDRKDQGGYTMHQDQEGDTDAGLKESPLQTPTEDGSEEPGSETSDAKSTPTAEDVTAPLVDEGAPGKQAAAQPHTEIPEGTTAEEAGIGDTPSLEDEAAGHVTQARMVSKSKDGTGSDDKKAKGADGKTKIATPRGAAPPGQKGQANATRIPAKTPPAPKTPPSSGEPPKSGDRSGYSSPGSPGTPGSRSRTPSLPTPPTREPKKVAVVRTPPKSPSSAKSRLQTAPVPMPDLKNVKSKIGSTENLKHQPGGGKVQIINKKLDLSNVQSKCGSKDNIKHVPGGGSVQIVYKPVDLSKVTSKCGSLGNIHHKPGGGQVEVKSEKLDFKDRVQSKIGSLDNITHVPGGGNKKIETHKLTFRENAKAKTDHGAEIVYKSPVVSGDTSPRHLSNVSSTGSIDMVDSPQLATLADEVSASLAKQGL
Outline: (§1)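 Aggregation was induced by 30 μM Forskolin co-applied with test compound for 48 h, with screening at 1, 3, 10 μM and dose-response at 0.03–30 μM. Nuclei were stained with Hoechst (2 μg/mL) and counted against Forskolin-only wells for cytotoxicity. Inhibition came from BiFC fluorescence relative to Forskolin-only versus untreated cells, with IC50 by nonlinear regression.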

Tau-BiFC cells = assay: Cell viability (cytotoxicity) in tau-BiFC cells, count of stained nuclei; format: cell-based; conditions: Forskolin-only group = 100% cell viability; for Cell viability: compounds marked *: measured at 3 μM; for Cell viability (% @10 μM): compound 10 μM
Outline: as §1

CYP1A2 = target: T2, CYP1A2 (Homo sapiens, UniProt P05177); assay: Inhibitory effect on CYP coenzyme activity, human liver microsomes; format: in vitro ADME; conditions: compound 10 μM; human liver microsomes 0.25 mg/mL; substrate phenacetin; 15 minutes
T2 construct: human liver microsomes (0.25 mg/mL); from tissue; host or cells: human liver microsomes
T2 sequence (P05177 1-516): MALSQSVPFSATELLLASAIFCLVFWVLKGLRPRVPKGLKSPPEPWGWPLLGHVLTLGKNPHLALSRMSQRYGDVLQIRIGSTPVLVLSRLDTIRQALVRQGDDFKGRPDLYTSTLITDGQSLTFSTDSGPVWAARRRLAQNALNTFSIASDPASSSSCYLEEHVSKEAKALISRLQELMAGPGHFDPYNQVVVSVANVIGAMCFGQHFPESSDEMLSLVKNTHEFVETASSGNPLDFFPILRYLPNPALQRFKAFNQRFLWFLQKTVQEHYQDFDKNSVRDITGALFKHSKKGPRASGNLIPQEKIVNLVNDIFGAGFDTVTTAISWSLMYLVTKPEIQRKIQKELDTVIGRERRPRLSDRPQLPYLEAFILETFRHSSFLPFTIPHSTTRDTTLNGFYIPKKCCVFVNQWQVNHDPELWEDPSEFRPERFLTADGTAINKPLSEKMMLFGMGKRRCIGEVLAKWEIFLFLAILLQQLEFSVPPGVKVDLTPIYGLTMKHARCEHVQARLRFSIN
Description: (§2) The inhibitory effects of the compounds prepared according to Examples 1 to 175 on CYP coenzyme activity were identified. Specifically, human liver microsomes (0.25 mg/mL), a 0.1 M phosphate buffer solution (pH 7.4), a substrate drug cocktail of five types of drug metabolism enzymes (50 μM phenacetin, 10 μM diclofenac, 100 μM S-mephenytoin, 5 μM dextromethorphan, and 2.5 μM midazolam), and the compound at a concentration of 0 μM or 10 μM were mixed and pre-cultured at 37° C. for 5 minutes, and then further cultured at 37° C. for 15 minutes together with an NADPH generation system solution added thereto. Thereafter, the reaction was terminated by adding an acetonitrile solution containing an internal standard material (terfenadine) and centrifuged for 5 minutes (14,000 rpm, 4° C.), and then a supernatant was injected into an LC-MS/MS system for simultaneous analysis of metabolites of the substrate drugs to thereby evaluate the inhibitory effects on drug metabolism.
(§3) Metabolites of each CYP coenzyme indicator drug generated through the reaction were analyzed using the Shimadzu Nexera XR system and TSQ Vantage (Thermo). In an HPLC column, Kinetex C18 (2.1 mm×100 mm, 2.6 μm, particle size; Phenomenex, USA) was used, and mobile phases were (A) distilled water containing 0.1% formic acid and (B) acetonitrile containing 0.1% formic acid, and a gradient program shown in Table 3 was applied thereto.
(§4) The generated metabolites were quantified using a multiple reaction monitoring (MRM) quantification mode, and Xcalibur (version 1.6.1) was used for data analysis. Inhibitory effects of the novel compound prepared according to the examples of the present invention on CYP coenzyme activity are shown in Table 4 below.

CYP2C19 = target: T3, CYP2C19 (Homo sapiens, UniProt P33261); assay: as above; format: in vitro ADME; conditions: compound 10 μM; human liver microsomes 0.25 mg/mL; substrate S-mephenytoin; 15 minutes
T3 construct: human liver microsomes (0.25 mg/mL); from tissue; host or cells: human liver microsomes
T3 sequence (P33261 whole entry): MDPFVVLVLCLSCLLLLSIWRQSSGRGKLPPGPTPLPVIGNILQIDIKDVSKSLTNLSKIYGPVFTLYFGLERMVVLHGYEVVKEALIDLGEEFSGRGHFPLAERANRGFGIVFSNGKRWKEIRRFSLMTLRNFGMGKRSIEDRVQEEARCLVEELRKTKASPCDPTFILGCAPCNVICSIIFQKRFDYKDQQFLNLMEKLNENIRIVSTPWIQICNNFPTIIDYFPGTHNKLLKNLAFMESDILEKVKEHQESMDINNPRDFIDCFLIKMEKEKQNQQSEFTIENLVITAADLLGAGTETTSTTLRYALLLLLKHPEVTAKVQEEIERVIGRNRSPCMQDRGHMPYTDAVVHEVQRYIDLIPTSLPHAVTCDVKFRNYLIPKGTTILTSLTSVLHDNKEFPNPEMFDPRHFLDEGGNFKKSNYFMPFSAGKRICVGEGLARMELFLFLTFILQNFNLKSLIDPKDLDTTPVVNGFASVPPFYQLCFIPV
Description: as §2, §3, §4

CYP2C9 = target: T4, CYP2C9 (Homo sapiens, UniProt P11712); assay: as above; format: in vitro ADME; conditions: compound 10 μM; human liver microsomes 0.25 mg/mL; substrate diclofenac; 15 minutes
T4 construct: human liver microsomes (0.25 mg/mL); from tissue; host or cells: human liver microsomes
T4 sequence (P11712 whole entry): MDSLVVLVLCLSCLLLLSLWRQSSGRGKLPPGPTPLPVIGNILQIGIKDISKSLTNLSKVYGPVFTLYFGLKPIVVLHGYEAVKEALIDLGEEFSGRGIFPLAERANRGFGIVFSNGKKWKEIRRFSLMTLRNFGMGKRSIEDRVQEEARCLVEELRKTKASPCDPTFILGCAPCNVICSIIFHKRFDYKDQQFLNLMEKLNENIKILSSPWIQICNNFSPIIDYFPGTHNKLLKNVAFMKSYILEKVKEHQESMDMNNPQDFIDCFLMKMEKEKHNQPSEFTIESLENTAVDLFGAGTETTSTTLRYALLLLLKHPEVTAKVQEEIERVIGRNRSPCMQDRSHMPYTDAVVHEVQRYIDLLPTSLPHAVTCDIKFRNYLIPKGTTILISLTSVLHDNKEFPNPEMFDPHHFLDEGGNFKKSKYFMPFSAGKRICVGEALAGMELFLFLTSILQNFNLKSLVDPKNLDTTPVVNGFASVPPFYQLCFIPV
Description: as §2, §3, §4

CYP2D6 = target: T5, CYP2D6 (Homo sapiens, UniProt P10635); assay: as above; format: in vitro ADME; conditions: compound 10 μM; human liver microsomes 0.25 mg/mL; substrate dextromethorphan; 15 minutes
T5 construct: human liver microsomes (0.25 mg/mL); from tissue; host or cells: human liver microsomes
T5 sequence (P10635 whole entry): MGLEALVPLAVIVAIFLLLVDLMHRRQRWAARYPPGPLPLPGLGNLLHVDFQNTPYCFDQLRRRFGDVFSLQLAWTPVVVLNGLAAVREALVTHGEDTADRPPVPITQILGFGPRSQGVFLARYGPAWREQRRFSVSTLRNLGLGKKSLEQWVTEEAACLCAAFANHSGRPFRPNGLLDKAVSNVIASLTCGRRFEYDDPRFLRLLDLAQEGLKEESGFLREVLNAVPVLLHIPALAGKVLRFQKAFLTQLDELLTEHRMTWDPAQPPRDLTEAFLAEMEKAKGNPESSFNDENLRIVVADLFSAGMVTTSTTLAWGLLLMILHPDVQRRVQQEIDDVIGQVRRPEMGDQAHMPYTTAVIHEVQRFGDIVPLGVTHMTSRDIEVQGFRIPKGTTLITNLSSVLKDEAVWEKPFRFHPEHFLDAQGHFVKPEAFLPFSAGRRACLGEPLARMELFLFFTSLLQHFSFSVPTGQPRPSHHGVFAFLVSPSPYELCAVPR
Description: as §2, §3, §4

CYP3A4 = target: T6, CYP3A4 (Homo sapiens, UniProt P08684); assay: as above; format: in vitro ADME; conditions: compound 10 μM; human liver microsomes 0.25 mg/mL; substrate midazolam; 15 minutes
T6 construct: human liver microsomes (0.25 mg/mL); from tissue; host or cells: human liver microsomes
T6 sequence (P08684 whole entry): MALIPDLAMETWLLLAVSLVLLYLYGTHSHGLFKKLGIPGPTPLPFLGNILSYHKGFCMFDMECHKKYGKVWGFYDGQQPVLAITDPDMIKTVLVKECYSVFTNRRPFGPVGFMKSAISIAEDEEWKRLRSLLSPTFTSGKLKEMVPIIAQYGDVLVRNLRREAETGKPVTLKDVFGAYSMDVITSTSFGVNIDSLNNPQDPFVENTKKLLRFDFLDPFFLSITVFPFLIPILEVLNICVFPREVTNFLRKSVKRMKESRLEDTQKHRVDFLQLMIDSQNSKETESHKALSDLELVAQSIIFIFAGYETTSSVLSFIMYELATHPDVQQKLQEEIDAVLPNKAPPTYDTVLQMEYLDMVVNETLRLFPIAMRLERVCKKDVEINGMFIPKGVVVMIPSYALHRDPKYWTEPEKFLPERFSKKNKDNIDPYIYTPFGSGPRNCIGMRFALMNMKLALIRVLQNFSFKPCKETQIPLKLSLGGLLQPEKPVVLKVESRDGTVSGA
Description: as §2, §3, §4

[1] = Liver microsome stability; format: in vitro ADME, human; conditions: amount of substrate remaining; compound 1 μM, 30 minutes, 37° C., NADPH
Description: (§5) The stability of liver microsomes due to the compounds prepared according to Examples 1 to 175 was confirmed. Specifically, four types of liver microsomes (human, dog, rat, and mouse, each 0.25 mg/mL), a 0.1 M phosphate buffer solution (pH 7.4), and each of the compounds at a concentration of 1 μM were mixed and pre-cultured at 37° C. for 5 minutes and further cultured at 37° C. for 30 minutes together with an NADPH generation system solution added thereto. Thereafter, the reaction was terminated by adding an acetonitrile solution containing an internal standard material (chloropropamide) and centrifuged for 5 minutes (14,000 rpm, 4° C.), and then a supernatant was injected into an LC-MS/MS system for analysis of substrate drugs to thereby evaluate metabolic stability due to 8 types of compounds.
(§6) The amount of the substrate remaining after the reaction was analyzed using the Shimadzu Nexera XR system and TSQ Vantage (Thermo). In an HPLC column, Kinetex XB-C18 (2.1 mm×100 mm, particle size of 2.6 μm; Phenomenex, USA) was used, and mobile phases were (A) distilled water containing 0.1% formic acid and (B) acetonitrile containing 0.1% formic acid. Analyst software (version 1.6.3) and Xcalibur (version 1.6.1) were used for data analysis.

[2] = Liver microsome stability; format: in vitro ADME, rat; conditions: amount of substrate remaining; compound 1 μM, 30 minutes, 37° C., NADPH
Description: as §5, §6

[3] = Liver microsome stability; format: in vitro ADME, mouse; conditions: amount of substrate remaining; compound 1 μM, 30 minutes, 37° C., NADPH
Description: as §5, §6

SMILES | remaining activity at 3 µM (tau protein) [%] | Cell viability (Tau-BiFC cells) [%] | CYP1A2 (CYP1A2) | CYP2C19 (CYP2C19) | CYP2C9 (CYP2C9) | CYP2D6 (CYP2D6) | CYP3A4 (CYP3A4) | Human (%) [1] [%] | Rat (%) [2] [%] | Mouse (%) [3] [%] | IC50 (tau protein) [nM] | remaining activity at 10 µM (tau protein) [%] | Cell viability (% @10 μM) (Tau-BiFC cells) [%]
Cc1cc(NN=C(C#N)C#N)ccc1OCc1ncccn1 [Compound 143, (3-methyl-4-(pyrimidin-2-ylmethoxy)phenyl)carbonohydrazonoyl dicyanide] | 11 | 125 | 95.9 | >100 | >100 | >100 | 90.3 | 78.3 | 57.6 | 50 | – | – | –
Cc1cc(NN=C(C#N)C#N)ccc1OCc1nc2ccccc2o1 [Compound 156, (4-(benzo[d]oxazol-2-ylmethoxy)-3-methylphenyl)carbonohydrazonoyl dicyanide] | -29 | 124 | 95.9 | 83.7 | 54 | 96 | 92.6 | 49.3 | 55.5 | 41.3 | 50 | – | –
N#CC(C#N)=NNc1ccc(OCc2ncccn2)cc1 [Compound 136, (4-(pyrimidin-2-ylmethoxy)phenyl)carbonohydrazonoyl dicyanide] | – | – | 80.3 | 76.5 | 70 | 94.4 | 88.9 | – | – | – | 1440 | 0 | 95.7
Cc1cc(NN=C(C#N)C#N)ccc1OCc1cnccn1 [Compound 144, (3-methyl-4-(pyrazin-2-ylmethoxy)phenyl)carbonohydrazonoyl dicyanide] | -20 | 111 | 37.7 | >100 | 24.5 | >100 | 89.2 | 74.9 | 92.4 | 80.9 | 1280 | – | –
COc1cc(NN=C(C#N)C#N)ccc1C(=O)Nc1cnc(C)cn1 [Compound 104, (3-methoxy-4-(5-methylpyrazin-2-ylcarbamoyl)phenyl)carbonohydrazonoyl dicyanide] | – | – | 78.4 | 82.4 | 48.6 | >100 | 66.1 | 84.1 | 87.5 | 97.2 | 260 | 0 | 142
COc1cc(NN=C(C#N)C#N)ccc1OCc1cnc(C)cn1 [Compound 162, (3-methoxy-4-((5-methylpyrazin-2-yl)methoxy)phenyl)carbonohydrazonoyl dicyanide] | -25 | 115 | 79.8 | 75.9 | 73.5 | 70.3 | 73.3 | – | – | – | 49 | – | –
COc1cc(NN=C(C#N)C#N)ccc1OCc1ccc(C)cc1 [Compound 154, (3-methoxy-4-(4-methylbenzyloxy)phenyl)carbonohydrazonoyl dicyanide] | -52 | 106 | 79.1 | 76.3 | 26.6 | 81.7 | 72.5 | – | – | – | 32 | – | –
N#CC(C#N)=NNc1ccc(OCc2cn[nH]c2)cc1 [Compound 137, (4-((1H-pyrazol-4-yl)methoxy)phenyl)carbonohydrazonoyl dicyanide] | 31 | 129 | >100 | >100 | 37 | >100 | 84.8 | – | – | – | – | – | –
Cc1cc(NN=C(C#N)C#N)ccc1OCc1cc[nH]n1 [Compound 151, (4-((1H-pyrazol-3-yl)methoxy)-3-methylphenyl)carbonohydrazonoyl dicyanide] | -32 | 126 | 51.8 | >100 | 19.4 | 94.8 | 88 | – | – | – | 22 | – | –
Cc1ccc(C(=O)Nc2ccc(NN=C(C#N)C#N)cn2)cc1 [Compound 23, (6-(4-methylbenzamido)pyridin-3-yl)carbonohydrazonoyl dicyanide] | – | – | 85 | 82.5 | 40.6 | >100 | 83.3 | – | – | – | 130 | 0 | 114.2
